According to patent publication US20070003536A1, “Topical skin compositions, their preparation, and their use” (priority 2000, published 2007):

What was measured:
[1] = target: T1, MMP-1 (interstitial collagenase) (Homo sapiens, UniProt P03956); experiment: MMP-1 activity kit (Amersham); format: biochemical; details: samples diluted to 100 mg/ml using PBS; FIG. 5
T1 construct: purchased Amersham
T1 sequence (P03956 100-469): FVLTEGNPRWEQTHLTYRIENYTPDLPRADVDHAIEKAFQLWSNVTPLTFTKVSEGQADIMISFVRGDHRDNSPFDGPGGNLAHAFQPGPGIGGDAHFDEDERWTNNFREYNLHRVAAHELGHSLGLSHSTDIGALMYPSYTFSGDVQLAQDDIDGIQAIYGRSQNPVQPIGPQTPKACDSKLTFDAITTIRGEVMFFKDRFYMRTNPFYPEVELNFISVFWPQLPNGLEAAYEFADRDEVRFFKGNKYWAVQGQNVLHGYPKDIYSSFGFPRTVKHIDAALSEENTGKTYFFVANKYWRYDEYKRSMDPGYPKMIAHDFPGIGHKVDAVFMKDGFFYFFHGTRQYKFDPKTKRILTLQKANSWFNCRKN
Description: FIG. 5 is a graph showing the effect of samples on MMP-1 activity. The data are expressed as % control MMP-1 activity. The horizontal line denotes 100% activity.
The matrix metalloproteinases (MMP) are a group of zinc dependent enzymes, which degrade varying components of the extracellular matrix in both normal and diseased tissue. MMP-1 (interstitial collagenase) is thought to initiate the cleavage of fibrillar collagen while MMP-9 (gelatinase) digests the denatured collagen fragments generated by MMP-1. The products of MMP-9 digestion are then free to be incorporated into new collagen fibrils. Elastase breaks down elastin. The expression of these enzymes is under strict control and changes as individuals age or are exposed to UV irradiation. Because MMP-1 is involved in initiation of collagen breakdown, it would be advantageous for skin care products to inhibit MMP-1 activity. […] Finally, elastase should be inhibited as to prevent digestion of elastin and the […] of the skin.
Commercially available kits were used for testing the effect of the samples on the activity of the MMPs of interest. For MMP-1, a kit from Amersham was used according to the manufacturer's specifications. For MMP-9 and Elastase, kits from Molecular Probes were used. The samples were prepared in the solvent noted in table I at stock concentrations of 100 mg/ml. […]

[2] = tested on: RAW 264.7 cells; experiment: NO production by LPS stimulated RAW 264.7 cells (Griess reagent); format: cell-based, Murine; details: for inhibitory effect on nitrite accumulation in culture supernatants: LPS stimulated RAW cells, in words; for Nitrite produced: LPS 100 ng/ml, LPS control 901.7
Procedure: FIG. 8 is a graph showing the effect of samples on NO production by RAW 264.7 cells. Data are expressed as % NO produced compared to the LPS stimulated positive control. L6=Lipochroman-6, NT=Nutriene tocotrienols, TQS=γ-Tocopherylquinone S, VC=Viapure Citrus, SZ=Soybean Zymbiosome, and NPR=NAB Pikea robusta.
Cells in skin can produce nitric oxide (NO) when exposed to UV light, and NO thus produced has the potential to induce age associated changes in skin. This study was performed in order to screen a panel of cosmetics and skin care raw materials for their effect on NO production by RAW 264.7 cells.
Murine RAW 264.7 cells were seeded in a 96 well plate at 1×10^5 cells /well. The plate was incubated overnight. The following day, the cells were treated with the samples at 0.001, 0.01, and 0.1% for 2 hours. The samples are listed below in Table II. Following the exposure period, LPS was added to the wells at 100 ng/ml. The plate was incubated overnight. Equal volumes of culture supernatant and Griess reagent were incubated for 15 min at room temperature and the absorbance at 540 nm was read. The amount of nitrite in the samples was calculated from a standard curve generated with sodium nitrite.

[3] = tested on: Human dermal fibroblasts (Hs-27); experiment: Elastin secretion by fibroblasts, energy booster samples with co-stimuli, Example 4; format: cell-based; details: Media line: stimulus alone, no energy booster (Centella asiatica, vitamin C 0.001%; Biodynes EMPP 0.1%)
Procedure: (§1) Four new samples that boost cellular energy were tested for their ability to augment extracellular matrix component production in response to Centella and Biodynes. Human dermal fibroblasts were used as these cells actively synthesize extracellular matrix components. In addition to measuring procollagen and elastin levels, hyaluronic acid levels were also measured. Hyaluronic acid is a member of the glycosaminoglycan family of compounds. Glycosaminoglycans make up the ground substance of connective tissue, and along with elastin, help provide elasticity to skin. They also hold water and therefore provide viscosity and hydrating properties.
(§2) Samples were diluted in media. Centella asiatica and vitamin C were prepared at 0.001%. Biodynes EMPP was prepared at 0.1%. Centella asiatica was prepared as an extract in DMSO:ethanol:water at 50:30:20. The “energy booster” samples, Seanergilium algae extract, Thiotaine, Sepitonic, and Phytovityl corn kernel extract, were all prepared in media at 0.01, 0.1, and 1.0%. Human dermal fibroblasts (Hs-27) were plated in 24 well plates and were incubated overnight. The cells were treated with the samples at the concentrations indicated for 2 consecutive days. […]

[4] = tested on: Human dermal fibroblasts (Hs-27); experiment: Hyaluronic acid secretion by fibroblasts, energy booster samples with co-stimuli, Example 4; format: cell-based; details: Media line: stimulus alone, no energy booster (Centella asiatica, vitamin C 0.001%; Biodynes EMPP 0.1%); media control 1112
Procedure: as §1
Samples were diluted in media. Centella asiatica and vitamin C were prepared at 0.001%. Biodynes EMPP was prepared at 0.1%. Centella asiatica was prepared as an extract in DMSO:ethanol:water at 50:30:20. The “energy booster” samples, Seanergilium algae extract, Thiotaine, Sepitonic, and Phytovityl corn kernel extract, were all prepared in media at 0.01, 0.1, and 1.0%. Human dermal fibroblasts (Hs-27) were plated in 24 well plates and were incubated overnight. […]
Data are expressed as ng hyaluronic acid/ml culture supernatant. The amount of hyaluronic acid in each supernatant was calculated from a standard curve generated using a hyaluronic acid standard supplied with the ELISA kit.

[5] = tested on: Human dermal fibroblasts (Hs-27); experiment: Procollagen secretion by fibroblasts, energy booster samples with co-stimuli, Example 4; format: cell-based; details: Media line: stimulus alone, no energy booster (Centella asiatica, vitamin C 0.001%; Biodynes EMPP 0.1%); media control 1533
Procedure: as §1, §2

In the case of `COC1=C(OC)C(=O)C(C/C=C(\C)CC/C=C(\C)CC/C=C(\C)CC/C=C(\C)CC/C=C(\C)CC/C=C(\C)CC/C=C(\C)CC/C=C(\C)CC/C=C(\C)CCC=C(C)C)=C(C)C1=O` [CoQ10, 2,3,-dimethoxy-5-methyl-6-decaprenyl-benzoquinone], the “effect on MMP-1 activity” value [1] is reported as “most potent activators”.
With `CC1=C(C)C(=O)C(CC[C@](C)(O)CCC[C@H](C)CCC[C@H](C)CCCC(C)C)=CC1=O` [g-Tocopherylquinone S] the “inhibitory effect on nitrite accumulation in culture supernatants” value (from here on “inhibitory effect”) [2] was “most potent”, the Nitrite produced ([2]; dose 0.001%) was 754.2 ng/mL and the Nitrite produced ([2]; dose 0.01%) was 830.3 ng/mL. The Nitrite produced ([2]; dose 0.1%) was 217.9 ng/mL.
For `O=C1O[C@H]([C@@H](O)CO)C(O)=C1O` [Vitamin C, ascorbic acid], the “elastin secretion, % media control elastin” value [3] was 148%, the hyaluronic acid secretion [4] was 633 ng hyaluronic acid/ml culture supernatant and the procollagen secretion [5] was 1744 ng/mL.
With `COc1cc2c(cc1O)CCC(C)(C)O2` [Lipochroman-6] the “inhibitory effect” value [2] was “most potent”, the “inhibitory effect” value ([2]; listed as L6) was “more inhibitory activity than do mixed tocopherols” and the Nitrite produced ([2]; dose 0.001%) was 1006.5 ng/mL. It also gave a Nitrite produced ([2]; dose 0.01%) of 750.7 ng/mL and a Nitrite produced ([2]; dose 0.1%) of 336.7 ng/mL.
